The values below come from publication PMC7274539, “The selective glucocorticoid receptor antagonist CORT125281 has tissue-specific activity” (The Journal of Endocrinology, 2020).

Where two headings read alike, the source gives them in different places.

One data set has as its system HPA-axis activity. Set-up: method as in Kroon et al. 2018. Particulars: ref Kroon et al. 2018; cited from earlier work.
The next data set relates to GR activity in the brain. The data set is described as follows: In situ hybridization of Gilz mRNA, Fkbp5 hnRNA, Nr3c1 and Nr3c2 in hippocampus and PVN. The data set is classed as in vivo, C57Bl/6J mice. The method, then: (§1) All studies involving animals were approved by the institutional ethics committee on animal care and experimentation at the Leiden University Medical Center. The 8-week old male C57Bl/6J mice (Charles River) were housed in ventilated cages with a 12 h light:12 h darkness regime and ad libitum access to food and water. In the acute corticosterone exposure experiments, mice received a synthetic chow diet (Research Diets, New Brunswick, NJ, USA) containing vehicle or CORT125281 (6, 20 or 60 mg/kg/day, Corcept Therapeutics, Menlo Park, CA, USA) for 6 days. […] Mice were treated daily with vehicle, 60 mg/kg mifepristone (Corcept Therapeutics) or 60 mg/kg CORT125281 (dissolved in PBS with 0.1% Tween 80 and 0.5% hydroxypropylmethylcellullose, Corcept Therapeutics) via oral gavage for 5 days, after which mice were killed by CO2 inhalation. Throughout the experiment, body weight was monitored and body composition was determined with EchoMRI™ (Frankfurt, Germany). After 5 days, blood was collected from the lateral tail vain in paraoxon-coated capillaries after a 6-h fast. Plasma triglyceride, total cholesterol, free fatty acid, glucose and insulin levels were determined using commercially available kits (Roche; Instruchemie, Delfzijl, Netherlands and Crystal Chem, Zaandam, Netherlands). Blood concentrations of the major leukocyte classes, that is, lymphocytes, monocytes and eosinophils, were determined in whole blood using an automatic veterinary hematology analysis (Sysmex XT-2000iV; Goffin Meyvis, Etten-Leur, the Netherlands).
For dual label in situ hybridization, frozen unfixed pituitaries were embedded in tissue-tek OCT (Sakura Finetek, Alphen aan den Rijn, Netherlands), sliced (12 µm) and collected on glass slides (Superfrost Plus, Thermo Fisher Scientific). Dual label in situ hybridization was performed using the QuantiGene ViewRNA ISH Tissue 2-Plex Assay (Thermo Fisher Scientific) and pictures were captured with a wide-field microscope (DM6B, Leica Microsystems). For 4-plex in situ hybridization, frozen, unfixed brain slices (12 µm) were collected on glass slides at bregma −0.772 mm (PVN) and −1.532 mm (hippocampus). 4-plex in situ hybridization was performed using the RNAScope fluorescent multiplex assay and RNAscope 4-plex ancillary kit (Advanced Cell Diagnostics, Newark, CA, USA) and Opal fluorophores 520, 570, 620 and 690 (PerkinElmer). Pictures were captured with a confocal microscope (SP8 WLL, Leica Microsystems). All pictures were analysed with ImageJ Software (NIH).

In data set [1] the test system is GR transcriptional activity. The data set is described as follows: Subchronic corticosterone exposure: RT-qPCR of GR and insulin target genes in tissues. The data set is classed as in vivo, C57Bl/6J mice. Particulars: corticosterone pellet 5 days, 60 mg/kg/day oral gavage. The method, then:
as §1
In both acute and subchronic corticosterone experiments, relevant tissues (including quadriceps muscle, interscapular BAT, gonadal white adipose tissue (WAT), adrenals, spleen, thymus, pituitary and hippocampus) were collected to determine tissue weight and/or for further molecular analysis.
Total RNA was isolated from snap-frozen tissues using TriPure isolation reagent (Roche). After reverse transcription to cDNA (Promega), RT-qPCR was performed using IQ SYBR-Green supermix and MyIQ thermal cycler (Bio-RAD CFX96). Primers were tested for high efficiency (90–110%) and for amplification of a single PCR product. All primer sequences are listed in Supplementary Table 1 (see section on supplementary materials given at the end of this article), with the exception of Ncor1 and Ncor2 which were purchased from Qiagen. Fold change expression was calculated using the 2^−ΔΔ^CT method.
(In qPCR the cycle at which signal appears reflects the starting amount.)

A further data set relates to other nuclear receptors. Set-up: method as in Kroon et al. 2018. Particulars: ref Kroon et al. 2018; cited from earlier work.
The nature of data set [2]: Quantification of serum and tissue CORT125281 concentration by LC-MS. The data set is classed as in vivo, C57Bl/6J mice. Particulars: male, C57Bl/6J, mouse, oral, 60 mg/kg/day for 6 days, mice. The method, then:
as §1
Compound levels were assessed against standard curves for CORT125281, ranging from 0.05–20 µM in each tissue. Tissues were weighed and water was added at three-fold the weight of each individual sample before homogenising. Internal standard (90 µL of 1 µM leucine enkephalin in acetonitrile) was added to all samples, standard curves and quality control spikes of CORT125281. After centrifugation, a fixed volume of supernatant was removed and pellets were dissolved in water. The samples were then analysed by LC-MS utilising a QTRAP 5500 mass spectrometer (Sciex, Warrington, UK), UPLC (Agilent) instrument, equipped with a C18 Cortecs UPLC analytical column (2.1 × 30 mm, […]). […] The gradient started with a mobile phase composition of 5% B which was held for 0.1 min. The percentage of B was then linearly ramped to 95% over 0.1 to 1.2 min and then held constant up to 1.3 min. […] The mass spectrometer was set to operate in negative ion mode. The ion source temperature was 650°C, the ion spray voltage was −4000 V, gases 1, 2 and curtain gas were 30 V, 60 V and 35 V, respectively, and the entrance and collisition exit potential were −10 V and −13 V. The collision energy and declustering potential used for the multiple reaction monitoring (MRM) transitions of CORT125281 were −28 V and −60 V, the Q1 and Q3 masses were 588.649 Da and 248.800 Da, while the collision energy and declustering potential for the internal standard were −40 V and 0 V and the Q1 and Q3 masses 554.2 Da and 235.9 Da.

The mark [3] stands for this setting: 20 mg/kg/day CORT125281 6 days, corticosterone injection 1 h.

Consider `Cn1ncc(S(=O)(=O)N2CC[C@H]3Cc4c(cnn4-c4ccc(F)cc4)C[C@]3(C(=O)c3cc(C(F)(F)F)ccn3)C2)n1` [CORT125281], for which the “diurnal corticosterone rhythm flattened by high-fat diet” value with HPA-axis activity is “restored”. The “Nr3c1 (Gr) mRNA levels in the hippocampus” value with GR activity in the brain (setting [3]) is “Neither corticosterone nor CORT125281 affected”. The “Nr3c1 or Nr3c2 expression in the PVN” value with GR activity in the brain (setting [3]) was “Neither corticosterone nor CORT125281 affected”. Also, the “basal mineralocorticoid receptor (MR; Nr3c2) mRNA expression in the hippocampus” value in the data set on GR activity in the brain (6-20 mg/kg/day) is “increased”. Besides, the “corticosterone-induced Fkbp5 hnRNA and Gilz mRNA levels in the PVN” value in the data set with GR activity in the brain (6-20 mg/kg/day) is recorded as “had little effect”. Besides, in the data set on GR activity in the brain (6-20 mg/kg/day, corticosterone 1 h before tissue collection), the “corticosterone induction of Gilz mRNA and Fkbp5 hnRNA in hippocampal subfields” value was “did not prevent this induction”. Also, in the data set on GR activity in the brain (6-20 mg/kg/day, hippocampus), the “basal levels of Fkbp5 hnRNA in CA2 and CA3 regions” value is on record as “upregulated”. Further, the “expression of insulin target genes G6p and Pepck in liver, Glut4 and Lpl in WAT, Glut4 and Gsk3b in muscle” value in data set [1] was “did not affect”. Moreover, in data set [1] (liver, muscle, BAT, WAT, hippocampus), the “corticosterone-induced expression of GR target genes (Fkbp5, Gilz, Sgk1, Mt2a)” value is “did not prevent”. Moreover, the “cross-reactivity with other nuclear receptors” value in the data set with other nuclear receptors is recorded as “lacks cross-reactivity”. The Kp at 6 days stood at 19.1 in data set [2] (BAT (brown adipose tissue) relative to plasma, read-out: tissue to plasma ratio, BAT); 46.7 in data set [2] (WAT (white adipose tissue) relative to plasma, read-out: tissue to plasma ratio, WAT); 1.8 in data set [2] (brain (neocortex) relative to plasma, neocortex, read-out: tissue to plasma ratio, brain); 8 in data set [2] (liver relative to plasma, read-out: tissue to plasma ratio, liver). The concentration at 6 days came to 4720 ng/g in data set [2] (BAT (brown adipose tissue), BAT, read-out: CORT125281 level, BAT); 12500 ng/g in data set [2] (gonadal WAT (white adipose tissue), gonadal WAT, read-out: CORT125281 level, WAT); 542 ng/g in data set [2] (brain neocortex, read-out: CORT125281 level, brain); 2040 ng/g in data set [2] (liver, read-out: CORT125281 level, liver); 419 ng/g in data set [2] (plasma, read-out: CORT125281 level, plasma).
